Data taken from publication PMC12396409, “Screening and hit evaluation of a microbial metabolite library against the pathogenic Plasmodium falciparum and Toxoplasma gondii parasites” (International Journal for Parasitology: Drugs and Drug …, 2025).
Like-named read-outs stand apart in the source and are kept apart here. *1 amine or outer side, *2 acyl side, *3 side chain or, on linkers, in order; H or OH if unused. Where a SMILES comes first, the peptide text is derived from it. Bridges are numbered along the chain shown (N, C = ends). [ ]: non-standard residue; d: D form. The star is where a group is joined. X1 = O=C1C[C@@H](C(=O)[*:2])N([*:1])C[C@H]1CS[C@@H]1CN2CCC1CC2; Ileψ(thiazoline)Cys = CC[C@H](C)[C@H](N)C1=N[C@H](C(=O)*)CS1; NMePhe(4-NMe2) = CN[C@@H](Cc1ccc(N(C)C)cc1)C(=O)O; Picolinoyl(3-OH) = O=C(c1ncccc1O)*; aIle = CC[C@@H](C)[C@H](N)C(=O)O; Phg = N[C@H](C(=O)O)c1ccccc1; dOrn = NCCC[C@@H](N)C(=O)O; dAbu = CC[C@@H](N)C(=O)O

Experiments:
[1] = system: P. falciparum 3D7 parasites; assay: P. falciparum growth inhibition assay, 1-cycle (72 h treatment), SYBR DNA staining (library screen at 2 μg/mL and dose-response); assay type: cell-based, Plasmodium falciparum; details: for activity at 2 µg/mL: Plasmodium falciparum
[2] = system: P. falciparum 3D7 parasites; assay: P. falciparum growth inhibition assay, 2-cycle (120 h treatment), delayed-death screen and dose-response; assay type: cell-based, Plasmodium falciparum; details: for activity at 2 µg/mL: Plasmodium falciparum
[3] = system: T. gondii RH strain (RH-Tub-eYFP) tachyzoites; assay: microbe, parasite or virus in culture; assay type: cell-based, Toxoplasma gondii; details: 72 h; for percent parasite growth at 2 µg/mL: Toxoplasma gondii
[4] = P. falciparum 3D7, 72 h, library screen at 2 μg/mL, % growth, replicate 1
[5] = P. falciparum 3D7, 72 h, library screen at 2 μg/mL, % growth, replicate 2
[6] = P. falciparum 3D7, 120 h, library screen at 2 μg/mL, % growth, replicate 1
[7] = P. falciparum 3D7, 120 h, library screen at 2 μg/mL, % growth, replicate 2
[8] = T. gondii RH, library screen at 2 μg/mL, % growth, replicate 1
[9] = T. gondii RH, library screen at 2 μg/mL, % growth, replicate 2
[10] = 3D7, library screen at 2 μg/mL, 72 h, % growth, replicate 1, read-out: Pf_72h_%Growth_Rep1
[11] = 3D7, library screen at 2 μg/mL, 72 h, % growth, replicate 2, read-out: Pf_72h_%Growth_Rep2
[12] = 3D7, library screen at 2 μg/mL, 120 h, % growth, replicate 1, read-out: Pf_120h_%Growth_Rep1
[13] = 3D7, library screen at 2 μg/mL, 120 h, % growth, replicate 2, read-out: Pf_120h_%Growth_Rep2
[14] = library screen at 2 μg/mL, % growth, replicate 1, read-out: Tg_72h_%Growth_Rep1
[15] = library screen at 2 μg/mL, % growth, replicate 2, read-out: Tg_72h_%Growth_Rep2

CCC(C)C1OC2(CCC1C)CC1CC(CC=C(C)C(O)C(C)C=CC=C3COC4C(O)C(C)=CC(C(=O)O1)C34O)O2 (stereo not drawn) [BIA-I1151]
Pf_72h_%Growth_Rep1 [1, 4]: 82.86% | Pf_72h_%Growth_Rep2 [1, 5]: 77.78% | Pf_120h_%Growth_Rep1 [2, 6]: 87.69% | Pf_120h_%Growth_Rep2 [2, 7]: 91.70% | Tg_72h_%Growth_Rep1 [3, 8]: 121.58% | Tg_72h_%Growth_Rep2 [3, 9]: 95.56%

CC[C@H](C)[C@H](N)C1=N[C@H](C(=O)N[C@@H](CC(C)C)C(=O)N[C@H](CCC(=O)O)C(=O)N[C@H](C(=O)N[C@H]2CCCCNC(=O)[C@H](CC(N)=O)NC(=O)[C@@H](CC(=O)O)NC(=O)[C@H](Cc3cnc[nH]3)NC(=O)[C@@H](Cc3ccccc3)NC(=O)[C@H]([C@@H](C)CC)NC(=O)[C@@H](CCCN)NC2=O)[C@@H](C)CC)CS1 [Bacitracin A] ({Ileψ(thiazoline)Cys}-L[dE]IK[dOrn]I[dF]H[dD]N; lactam 4-C)
activity at 2 µg/mL [1, 10]: 27.2% | activity at 2 µg/mL [1, 11]: 89.3% | activity at 2 µg/mL [2, 12]: 59.9% | activity at 2 µg/mL [2, 13]: 94.6% | percent parasite growth at 2 µg/mL [3, 14]: 81.4% | percent parasite growth at 2 µg/mL [3, 15]: 89.8%

C/C(=C\c1csc(C)n1)[C@@H]1C[C@@H]2O[C@@H]2CCC[C@H](C)[C@H](O)[C@@H](C)C(=O)C(C)(C)[C@@H](O)CC(=O)O1 [Epothilone A]
activity at 2 µg/mL ([1]; 3D7, 72 h, library screen at 2 μg/mL, 72 h, % growth, replicate 1, read-out: Pf_72h_%Growth_Rep1): 5.34% | activity at 2 µg/mL ([1]; 3D7, 72 h, library screen at 2 μg/mL, 72 h, % growth, replicate 2, read-out: Pf_72h_%Growth_Rep2): 6.86% | activity at 2 µg/mL ([2]; 3D7, 120 h, library screen at 2 μg/mL, 120 h, % growth, replicate 1, read-out: Pf_120h_%Growth_Rep1): -6.26% | activity at 2 µg/mL ([2]; 3D7, 120 h, library screen at 2 μg/mL, 120 h, % growth, replicate 2, read-out: Pf_120h_%Growth_Rep2): 10.7% | percent parasite growth at 2 µg/mL [3, 14]: 2.49% | percent parasite growth at 2 µg/mL [3, 15]: 2.65%

CC1(C)CC[C@]2(C(=O)O)CC[C@]3(C)C(=CC[C@@H]4[C@@]5(C)C[C@@H](O)[C@H](O)[C@@](C)(CO)[C@@H]5CC[C@]43C)[C@@H]2C1 [Arjunolic acid]
activity at 2 µg/mL [1, 10]: 75.9% | activity at 2 µg/mL [1, 11]: 83% | activity at 2 µg/mL [2, 12]: 72.4% | activity at 2 µg/mL [2, 13]: 76.3% | percent parasite growth at 2 µg/mL [3, 14]: 85.6% | percent parasite growth at 2 µg/mL [3, 15]: 73.6%

COC1C=CC=C(C)C(=O)NC2=CC(=O)C=C(C2=O)C(OC)C(C)CC(OC)C(OC)C(C)C=C(C)C1OC(N)=O (stereo not drawn) [BIA-H1036]
Pf_72h_%Growth_Rep1 [1, 4]: 51.92% | Pf_72h_%Growth_Rep2 [1, 5]: 44.34% | Pf_120h_%Growth_Rep1 [2, 6]: 68.16% | Pf_120h_%Growth_Rep2 [2, 7]: 41.77% | Tg_72h_%Growth_Rep1 [3, 8]: 133.21% | Tg_72h_%Growth_Rep2 [3, 9]: 80.30%

CCC(=O)N[C@H](CO)[C@H](O)c1ccc([N+](=O)[O-])cc1 [Corynecin II]
Pf_72h_%Growth_Rep1 ([1]; P. falciparum, 72 h, screen at 2 μg/mL, replicate 1): 84.27% | Pf_72h_%Growth_Rep2 ([1]; P. falciparum, 72 h, screen at 2 μg/mL, replicate 2): 79.27% | Pf_120h_%Growth_Rep1 ([2]; P. falciparum, 120 h, screen at 2 μg/mL, replicate 1): 83.93% | Pf_120h_%Growth_Rep2 ([2]; P. falciparum, 120 h, screen at 2 μg/mL, replicate 2): 86.26% | Tg_72h_%Growth_Rep1 ([3]; T. gondii, screen at 2 μg/mL, replicate 1): 140.85% | Tg_72h_%Growth_Rep2 ([3]; T. gondii, screen at 2 μg/mL, replicate 2): 90.01%

CC[C@@H](C)[C@@H]1NC(=O)[C@@H](CC(C)C)NC(=O)[C@H](CC(C)C)NC(=O)[C@H](Cc2c[nH]c3ccccc23)NC(=O)CNC(=O)[C@H](CC(N)=O)NC1=O [Desotamide] (cyclo(GWL[dL][aIle]N))
activity at 2 µg/mL [1, 10]: 67.3% | activity at 2 µg/mL [1, 11]: 64.4% | activity at 2 µg/mL [2, 12]: 36% | activity at 2 µg/mL [2, 13]: 50.7% | percent parasite growth at 2 µg/mL [3, 14]: 120% | percent parasite growth at 2 µg/mL [3, 15]: 93%

CC[C@H]1NC(=O)[C@@H](NC(=O)c2ncccc2O)[C@@H](C)OC(=O)[C@H](c2ccccc2)NC(=O)[C@@H]2CC(=O)[C@H](CS[C@@H]3CN4CCC3CC4)CN2C(=O)[C@H](Cc2ccc(N(C)C)cc2)N(C)C(=O)[C@@H]2CCCN2C1=O.CS(=O)(=O)O [Quinupristin mesylate] ({Picolinoyl(3-OH)}-T[dAbu]P[NMePhe(4-NMe2)][X1][Phg]; ester 1-C)
Pf_72h_%Growth_Rep1 ([1]; P. falciparum, 72 h, parasite screen 2 μg/mL, % growth, replicate 1): 73.76% | Pf_72h_%Growth_Rep2 ([1]; P. falciparum, 72 h, parasite screen 2 μg/mL, % growth, replicate 2): 97.23% | Pf_120h_%Growth_Rep1 ([2]; P. falciparum, 120 h, parasite screen 2 μg/mL, % growth, replicate 1): 64.23% | Pf_120h_%Growth_Rep2 ([2]; P. falciparum, 120 h, parasite screen 2 μg/mL, % growth, replicate 2): 110.37% | Tg_72h_%Growth_Rep1 ([3]; T. gondii, parasite screen 2 μg/mL, % growth, replicate 1): 87.31% | Tg_72h_%Growth_Rep2 ([3]; T. gondii, parasite screen 2 μg/mL, % growth, replicate 2): 81.75%
